Literature values in patent US20060264388A1, “Method for treating liver cancer by intrahepatic administration of nemorubicin” (priority 2003, published 2006).
Structures can show the parent of a compound that is named as a salt.

System: metastatic colorectal cancer
Conditions: after failure of 5-FU leucovorin; cited from earlier work

CCc1c2c(nc3ccc(OC(=O)N4CCC(N5CCCCC5)CC4)cc13)-c1cc3c(c(=O)n1C2)COC(=O)[C@]3(O)CC [Irinotecan hydrochloride trihydrate]
median survival time: approximately 9 months | response rate: 15%
